Assay results reported in US9498477B2, “Compositions and uses thereof to ameliorate pain” (Purdue Research Foundation, priority 2011, dated 2016).

Columns and labels:
[1] = system: Sprague Dawley rats models of spinal contusion injury; conditions: chronic SCI (5 months), single intraperitoneal dose 5 mg/kg body weight
Source text: (§1) Spinal contusion injury. Sprague Dawley rats are subjected to a spinal contusion injury according to the procedure described by Basso et al., Graded histological and locomotor outcomes after spinal cord contusion using the NYU weight-drop device versus transaction, Exp Neurol. […] After 20 weeks, the animals are divided into untreated injury and treated injury groups, each of which is compared to an uninjured control.
Test compound treatment. […] The solution is sterilized through a filter and stored at 4° C. […] Untreated animals are administered saline vehicle intraperitoneally. Blood pressures are monitored using a CODA 2 system (Kent Scientific Corp.).
Mechanical allodynia evaluation. Sprague Dawley rats models of spinal contusion injury are divided into untreated injury and treated injury groups. The untreated injury groups are injected daily with vehicle as described herein. The treated injury groups are injected daily with test compound as described herein. Uninjured controls, untreated injury groups, and treated injury groups are evaluated for pain according to the procedure described by Choi et al., Behavioral signs of ongoing pain and cold allodynia in a rat model of neuropathic pain, Pain 59:369-376 (1994).

[2] = system: Sprague Dawley rats models of spinal contusion injury; conditions: chronic SCI (5 months), single intraperitoneal dose 5 mg/kg body weight; remark: listed apart in the source
Source text: as §1
Test compound treatment. A solution of test compound, such as hydralazine hydrochloride (Sigma), is prepared with phosphate buffered saline. The solution is sterilized through a filter and stored at 4° C. […] Untreated animals are administered saline vehicle intraperitoneally. Blood pressures are monitored using a CODA 2 system (Kent Scientific Corp.).
Cold allodynia evaluation. Sprague Dawley rats models of spinal contusion injury are divided into untreated injury and treated injury groups. The untreated injury groups are injected daily with vehicle as described herein. The treated injury groups are injected daily with test compound as described herein. Uninjured controls, untreated injury groups, and treated injury groups are evaluated for pain according to the procedure described by Choi et al., Behavioral signs of ongoing pain and cold allodynia in a rat model of neuropathic pain, Pain 59:369-376 (1994).

NNc1nncc2ccccc12 [hydralazine]
time to improvement of mechanical allodynia after the injection [1]: ≤ 2 days
duration of efficacy of the treatment, mechanical allodynia ([1]; FIG. 2 panel A): at least 10 days
time to improvement of cold-induced pain after the injection [2]: ≤ 2 h
duration of efficacy of the treatment, cold allodynia ([2]; FIG. 2 panel B): at least 10 days
